The series can be described thus: Drug-drug interaction pharmacokinetics, plasma systemic exposure. The following applies: Formula I 100 mg/kg + Olaparib 50 mg/kg, oral qd 5 days, Day 1 and Day 5, plasma. It is filed as in vivo, NOD SCID mice. The method, then: The drug-drug interaction (DDI) of the USP1 inhibitor Formula I co-crystal in combination with Olaparib was evaluated in mice by assessing plasma systemic exposure over time. 6-8 week old female NOD SCID mice from Beijing Anikeeper Biotech Co. Ltd were randomized into groups of 4 and dosed via oral gavage once daily for 5 days with Formula I (100 mg/kg) alone, Olaparib (50 mg/kg) alone, or with Formula I (100 mg/kg) and Olaparib (50 mg/kg) in combination.
For Olaparib (50 mg/kg) alone or in combination with for Formula I (100 mg/kg), blood samples were collected from each mouse at the following time points post day 1 and day 5 dose: pre-dose, 0.5 hr, 1 hr, 2 hr, 6 hr, 12 hr, 24 hr. For Formula I alone (100 mg/kg) or in combination with Olaparib (50 mg/kg), blood samples were collected from each mouse at the following time points post day 1 and day 5: pre-dose, 1 hr, 2 hr, 4 hr, 8 hr, 12 hr, and 24 hr.

SMILES strings stand for the structures.

Take `COc1ncnc(C2CC2)c1-c1ncc2cnn(Cc3ccc(-c4nc(C(F)(F)F)cn4C(C)C)cc3)c2n1` [Formula I, 6-(4-cyclopropyl-6-methoxypyrimidin-5-yl)-1-(4-(1-isopropyl-4-(trifluoromethyl)-1H-imidazol-2-yl)benzyl)-1H-pyrazolo[3,4-d]pyrimidine]: the “Formula I exposure on co-administration with Olaparib” value was “does not increase Formula I exposure”.
